Laboratory results published in ChEMBL document CHEMBL3045439, “Isoforms of the heteropteran Nezara viridula ecdysone receptor: protein characterisation, RH5992 insecticide binding and homology modelling” (Pest Manag Sci, 2011).
pKi: −log10 of the molar value.

Key:
Type in all cases: protein-complex assay
[1] = target: T1, Ecdysone receptor (Lucilia cuprina, UniProt O18531+Q962I5); experiment: Binding affinity to Lucilia cuprina EcR
T1 sequence (O18531 whole entry): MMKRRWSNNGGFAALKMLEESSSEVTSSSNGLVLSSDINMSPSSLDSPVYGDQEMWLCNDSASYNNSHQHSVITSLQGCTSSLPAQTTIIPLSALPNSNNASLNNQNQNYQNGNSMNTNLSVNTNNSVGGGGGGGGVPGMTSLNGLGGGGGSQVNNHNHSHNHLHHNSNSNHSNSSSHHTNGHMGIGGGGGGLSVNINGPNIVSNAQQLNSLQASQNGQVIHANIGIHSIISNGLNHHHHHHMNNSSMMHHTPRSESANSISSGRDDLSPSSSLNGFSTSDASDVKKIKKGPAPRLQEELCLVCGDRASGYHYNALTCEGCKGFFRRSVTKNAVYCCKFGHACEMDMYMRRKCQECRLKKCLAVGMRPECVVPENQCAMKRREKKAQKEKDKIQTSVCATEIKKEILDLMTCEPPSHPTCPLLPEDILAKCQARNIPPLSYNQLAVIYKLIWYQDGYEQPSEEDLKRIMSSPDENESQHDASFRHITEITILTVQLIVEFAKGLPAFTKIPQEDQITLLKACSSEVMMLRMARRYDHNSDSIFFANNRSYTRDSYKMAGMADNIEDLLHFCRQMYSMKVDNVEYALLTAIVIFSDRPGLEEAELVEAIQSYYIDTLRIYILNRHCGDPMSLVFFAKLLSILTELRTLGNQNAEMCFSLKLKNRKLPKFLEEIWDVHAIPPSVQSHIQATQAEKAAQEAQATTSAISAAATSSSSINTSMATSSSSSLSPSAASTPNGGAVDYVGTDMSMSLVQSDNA
T1 sequence (Q962I5 whole entry): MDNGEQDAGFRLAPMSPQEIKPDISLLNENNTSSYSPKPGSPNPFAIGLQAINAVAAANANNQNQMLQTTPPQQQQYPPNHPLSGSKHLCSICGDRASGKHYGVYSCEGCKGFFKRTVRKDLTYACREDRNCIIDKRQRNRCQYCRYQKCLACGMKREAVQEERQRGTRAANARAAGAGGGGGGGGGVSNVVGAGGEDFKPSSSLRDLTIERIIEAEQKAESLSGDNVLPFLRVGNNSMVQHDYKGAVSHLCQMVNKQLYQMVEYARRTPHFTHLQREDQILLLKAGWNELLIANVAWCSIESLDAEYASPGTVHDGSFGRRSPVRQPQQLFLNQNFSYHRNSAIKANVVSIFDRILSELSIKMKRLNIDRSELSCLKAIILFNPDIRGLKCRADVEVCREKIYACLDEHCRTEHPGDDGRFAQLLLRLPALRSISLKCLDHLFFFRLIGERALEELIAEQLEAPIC

[2] = target: T2, Ecdysone receptor (Nezara viridula, UniProt E5L6Y0+E5L6Y1); experiment: Binding affinity to Nezara viridula EcR11
T2 sequence (E5L6Y1 whole entry): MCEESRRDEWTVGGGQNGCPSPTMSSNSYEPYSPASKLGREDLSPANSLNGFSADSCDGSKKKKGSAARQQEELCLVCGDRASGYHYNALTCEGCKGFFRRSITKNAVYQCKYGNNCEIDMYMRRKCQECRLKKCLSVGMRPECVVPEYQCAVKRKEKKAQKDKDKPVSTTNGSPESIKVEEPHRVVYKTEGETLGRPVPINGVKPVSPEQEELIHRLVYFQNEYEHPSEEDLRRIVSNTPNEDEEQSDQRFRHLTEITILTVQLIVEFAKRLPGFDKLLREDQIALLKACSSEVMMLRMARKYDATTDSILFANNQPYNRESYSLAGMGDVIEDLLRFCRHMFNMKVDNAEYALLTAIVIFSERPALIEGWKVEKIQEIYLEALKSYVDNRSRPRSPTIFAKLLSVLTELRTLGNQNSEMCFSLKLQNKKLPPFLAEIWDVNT
T2 sequence (E5L6Y0 whole entry): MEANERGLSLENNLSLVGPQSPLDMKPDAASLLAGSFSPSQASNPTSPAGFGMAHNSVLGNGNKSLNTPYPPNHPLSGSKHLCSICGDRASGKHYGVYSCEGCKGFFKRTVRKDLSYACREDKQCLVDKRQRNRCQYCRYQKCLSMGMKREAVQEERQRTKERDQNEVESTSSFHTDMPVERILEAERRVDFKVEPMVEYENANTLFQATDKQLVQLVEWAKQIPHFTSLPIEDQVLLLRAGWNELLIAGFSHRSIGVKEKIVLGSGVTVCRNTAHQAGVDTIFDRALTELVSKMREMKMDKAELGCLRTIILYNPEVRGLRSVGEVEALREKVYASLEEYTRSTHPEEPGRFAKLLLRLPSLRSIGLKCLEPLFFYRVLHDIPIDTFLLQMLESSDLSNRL

[3] = target: T3, Ecdysone receptor (Plodia interpunctella, UniProt Q6IVK1+Q6RVD3); experiment: Binding affinity to Plodia interpunctella (Indian meal moth ) EcR
T3 sequence (Q6RVD3 whole entry): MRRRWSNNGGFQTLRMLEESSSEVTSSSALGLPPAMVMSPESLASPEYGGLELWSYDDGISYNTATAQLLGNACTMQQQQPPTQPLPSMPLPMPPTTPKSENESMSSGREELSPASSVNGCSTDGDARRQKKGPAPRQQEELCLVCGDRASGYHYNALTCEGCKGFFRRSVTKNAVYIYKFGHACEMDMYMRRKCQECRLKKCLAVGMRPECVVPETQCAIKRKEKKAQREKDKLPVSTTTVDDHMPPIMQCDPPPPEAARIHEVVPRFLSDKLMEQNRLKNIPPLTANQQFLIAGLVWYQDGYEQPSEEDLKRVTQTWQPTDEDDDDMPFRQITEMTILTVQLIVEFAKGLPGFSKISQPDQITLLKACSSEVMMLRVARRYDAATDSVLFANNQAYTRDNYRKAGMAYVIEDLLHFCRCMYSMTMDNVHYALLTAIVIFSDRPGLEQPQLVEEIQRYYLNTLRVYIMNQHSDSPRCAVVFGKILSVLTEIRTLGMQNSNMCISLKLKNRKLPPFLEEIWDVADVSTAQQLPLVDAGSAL
T3 sequence (Q6IVK1 whole entry): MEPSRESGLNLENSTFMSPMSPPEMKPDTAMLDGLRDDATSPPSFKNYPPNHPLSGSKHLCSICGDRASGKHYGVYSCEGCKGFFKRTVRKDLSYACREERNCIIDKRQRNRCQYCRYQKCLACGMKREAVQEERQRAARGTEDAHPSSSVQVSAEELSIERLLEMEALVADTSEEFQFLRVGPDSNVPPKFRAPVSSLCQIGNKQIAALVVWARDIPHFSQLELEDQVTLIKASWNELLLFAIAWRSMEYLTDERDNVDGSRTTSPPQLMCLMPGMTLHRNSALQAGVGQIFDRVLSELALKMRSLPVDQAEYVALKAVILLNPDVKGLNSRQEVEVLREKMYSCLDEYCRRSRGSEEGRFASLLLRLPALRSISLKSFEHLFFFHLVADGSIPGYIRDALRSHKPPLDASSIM

**Q.** How did the pKi [1] turn out when `CCc1ccc(C(=O)NN(C(=O)c2cc(C)cc(C)c2)C(C)(C)C)cc1` [TEBUFENOZIDE] was run?
**A.** The pKi was 6.80.

**Q.** And the pKi [2]?
**A.** The pKi was 4.60.

**Q.** And the pKi [3]?
**A.** The pKi was 8.50.
